Test results from paper PMC4113456, “Atypical Signaling and Functional Desensitization Response of MAS Receptor to Peptide Ligands” (PLoS ONE, 2014).
Positions count from the first letter of the chain named. Where two headings read alike, the source gives them in different places.

Key:
MAS T270A mutant = target: T1, MAS T270A mutant (Homo sapiens, UniProt P04201, T270A); assay: Calcium assay, T270A MAS mutant stable cell line; format: cell-based
T1 construct: expressed in transfected cells
T1 sequence (P04201 1-325 T270A): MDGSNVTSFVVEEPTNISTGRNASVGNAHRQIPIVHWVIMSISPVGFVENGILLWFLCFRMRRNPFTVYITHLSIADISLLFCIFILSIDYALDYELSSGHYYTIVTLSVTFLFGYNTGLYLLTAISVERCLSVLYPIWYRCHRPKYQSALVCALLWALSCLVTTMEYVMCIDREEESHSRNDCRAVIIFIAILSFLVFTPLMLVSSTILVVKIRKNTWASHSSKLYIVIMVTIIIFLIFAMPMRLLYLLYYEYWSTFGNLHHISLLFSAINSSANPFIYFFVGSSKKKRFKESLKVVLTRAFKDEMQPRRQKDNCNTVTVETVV
Description: (§1) The assay was performed using FLIPR Calcium 5 assay kit (Molecular Devices, Sunnyvale, CA). For calcium measurements, cells at a density of 125,000 cells/well in 100 µl medium were seeded onto a 96-well clear bottom black cell culture plate that was pre-coated with poly-L-lysine. In the calcium assays the cell density of 125,000 cells/well was consistently maintained to minimize variability between independent experiments. The cells were seeded in induction media to induce MAS expression or in complete media for negative controls. The plate was maintained in a cell culture incubator for 26–28 h. The cells were then serum starved for 2 h by replacing the medium with 100 µl of serum free DMEM. In the case of pre-treatment with pan-inhibitor of G protein signaling, BIM-46187, the cells were initially serum starved for 1 h by replacing the medium with 50 µl of serum free DMEM. After 1 h, 50 µl of BIM-46187 was added to the cells to a final concentration of 25 µM and treated for another 1 h. Following serum starvation, 100 µl of calcium sensitive dye along with 2x (2.5 mM final concentration) probenecid (Life Technologies, Grand Island, NY) was added to the cells. During this step, AR-inverse agonist or BIM-46187 was also added at desired concentrations to the calcium dye preparation in case of experiments where cells were pre-treated with these inhibitors. The cells were maintained for one hour in the cell culture incubator. […] The instrument was programmed in FLEX mode to add ligands (50 µl at 5x concentration) to the cells and to monitor the fluorescence before and after adding the ligands. […]
(§2) The kinetic parameter t1/2 (time taken to reach half of the maximum response) was determined using SoftMax Pro software supplied with the FlexStation 3 instrument (Molecular Devices, Sunnyvale, CA).
(§3) For re-stimulation assays, the data is expressed as the percentage of maximum agonist stimulation to allow for ready comparison between individual experiments. […]

MAS [1] = target: T2, MAS (Homo sapiens, UniProt P04201); parameters: method as in ref [9] (a number printed in a supplementary file, which may have a reference list of its own: not looked up in the article's list); conditions: ref [9], read-out: EC50 (IP1 assay); cited from earlier work
T2 construct: expressed in transfected cells
T2 sequence (P04201 1-325): T1 sequence (P04201 1-325 T270A) with A270T

MAS I191A mutant = target: T3, MAS I191A mutant (Homo sapiens, UniProt P04201, I191A); assay: Calcium assay, I191A MAS mutant stable cell line; format: cell-based
T3 construct: expressed in transfected cells
T3 sequence (P04201 1-325 I191A): T1 sequence (P04201 1-325 T270A) with I191A, A270T
Description: as §1, §2, §3

MAS [2] = test system: MAS; parameters: method as in ref [9] (a number printed in a supplementary file, which may have a reference list of its own: not looked up in the article's list); conditions: Rat MAS; ref [9]; read-out: EC50 (cAMP assay); cited from earlier work
MAS [3] = target: T2, MAS; parameters: method as in ref [9] (a number printed in a supplementary file, which may have a reference list of its own: not looked up in the article's list); conditions: ref [9], read-out: EC50 (cAMP assay); cited from earlier work
[4] = Solubility of ligand stock in assay buffer; format: physicochemical; conditions: 5x ligand stock in D-PBS, at greater than 50 µM

In the case of COc1cc([N+](=O)[O-])ccc1S(=O)(=O)N1CC(CN2CCN(c3ccccn3)CC2)C(c2cccc(F)c2)C1 (centres unmarked) [AR-agonist], the “EC50, Calcium assay” value (MAS T270A mutant) is given as “cbd”, the “t1/2, Calcium assay” value (MAS T270A mutant) is given as 40.0 ± 1.2 s and the EC50 (MAS [1]) is given as 350 nM. For the same compound, the EC50 (MAS I191A mutant) was 17600 ± 3800 nM, the “t1/2, Calcium assay” value (MAS I191A mutant) was 68.3 ± 5.3 s and the EC50 (MAS [2]) was 1710 nM. The EC50 (MAS [3]) was 720 nM and the Solubility [4] was “solubility issues”.
